# Read-outs that look alike come from different tables or passages of the source.
# Assays:
# [1] = Bioavailability after oral administration in human beings (free monomeric (+)-catechin in plasma, LC-MS/MS)
# Description: (§1) With regard to taking the blood samples from the rats and from the human beings, the blood was collected in tubes internally coated with EDTA and was then centrifuged at 3000 rpm (revolutions per minute) at ambient temperature for 45 min, and then for 15 min at a temperature of 4° C. The plasma was then collected and stored at −70° C. before analysis.
# (§2) The analytical technique (LC-MS/MS for Liquid Chromatography coupled to tandem Mass Spectrometry) for measuring the active substance in the blood was based on the method described by Mata-Bilbao et al., published in 2007 in the Journal of Agricultural and Food Chemistry, volume 55, page 8857.
# (§3) The free (+)-catechin was extracted from the plasma with a solution of phosphoric acid, EDTA and ascorbic acid and was then purified by SPE (solid phase extraction); in particular, it is an Oasis™ HLB extraction which is analyzed by LC-MS/MS. The quantification was carried out according to a standard calibration procedure with (+/−)-catechin-2,3,4-^13C3 as internal standard (SI).
# This complex salt is administered to a group A of 5 healthy volunteers.
# This ct parameter makes it possible to calculate, from the data of table 1, the bioavailability of the (+)-catechin expressed in ng h/ml.
# [2] = format: in vivo, Wistar rats; conditions: in a period of one hour following the injection
# Text: (§4) Each of the mixtures is then solubilized in water.
# [3] = for Δct: vs CP
# Description: The experimental results described below were obtained on the basis of a study carried out in healthy human beings and in healthy Wistar rats weighing approximately 250 grams.
# An acclimation period was observed before beginning the experiments.
# The rats received an administration per os of a volume of 5 ml of a solution of active product.
# as §1, §2, §3
# The procedure is identical with regard to the extraction and the quantification of free quercetin or ECGC in the blood.
# With regard to the extraction and quantification of the total (+)-catechin, the procedure is the same as that applied to the free (+)-catechin, with the exception of the fact that an additional step prior to the purification by SPE is carried out.
# as §4
# Each of the mixtures is solubilized in water.
# collagen of rat skin = test: Total incorporation and incorporation into collagen of 3H-proline in the skin; format: in vivo, Wistar rats; conditions: 100 mg/kg by gavage, vs control subgroup
# Description: To do this, a study was carried out in vivo on a batch of 24 female Wistar rats weighing from 95 to 115 g, divided into two groups C and D, each of 12 rats. For each group, the radioactive 3H-hydroxyproline, the specific activity of which is 13.6 Ci/10-3 mol, was administered to all the animals by intraperitoneal injection of 3H-proline at a dose, relative to the weight of the individuals, of 1 mCi/kg, which represents an activity in terms of radioactive 3H-proline of 100 μCi/individual.
# 6 rats of each group received a treatment based on monomeric (+)-catechin by gavage in a proportion of 100 mg/kg for 5 days before sacrifice. […] The group C received monomeric (+)-catechin hydrochlorolysinate, while the group D received monomeric (+)-catechin ascorbolysinate.
# In table 8, the level of incorporation is measured by the number of disintegrations of the radioactive 3H-hydroxyproline per minute (dpm) per mg of dry weight. The higher this number, the higher the concentration of 3H-hydroxyproline.
# In this comparative example, a group E of 12 Wistar rats weighing from 95 to 115 g, in which radioactive 3H-hydroxyproline, the specific activity of which is 13.6 Ci/10-3 mol, was administered to all the individuals by intraperitoneal injection of 3H-proline at a dose, relative to the weight of the individuals, of 1 mCi/kg, which represents an activity in terms of radioactive 3H-proline of 100 μCi/individual.
# 6 rats of each group received a treatment based on pure monomeric (+)-catechin by gavage in a proportion of 100 mg/kg for 5 days before sacrifice.
# Solubility in water = format: physicochemical
# [4] = free (+)-catechin, 1 g pure monomeric (+)-catechin, group B
# [5] = free monomeric (+)-catechin in plasma
# [6] = free (+)-catechin, rats, oral, dose equivalent to 25 mg/kg (+)-catechin, 3 Wistar rats
# [7] = free (+)-catechin, rats, per os, dose equivalent to 25 mg/kg (+)-catechin, 5 Wistar rats, pulverulent mixture solubilized in water
# [8] = total (+)-catechin (free and conjugated), rats, oral, dose equivalent to 25 mg/kg, 3 Wistar rats
smiles,measurement,setting,value
"Oc1cc(O)c2c(c1)O[C@H](c1ccc(O)c(O)c1)[C@@H](O)C2 [CP, (+)-catechin]",c (max) related back to 0.92 g of pure (+)-catechin,[1],258 ng/mL
same,ct related back to 0.92 g of pure (+)-catechin,[1]; equivalent amount of 0.92 g pure (+)-catechin,832 ± 150 ng·h/mL
same,ct related back to 0.920 g of pure (+)-catechin,[1]; equivalent amount of 0.920 g pure (+)-catechin,49 920 ng min/ml
same,T (max),[1]; [4],1.20 h
same,c (max),[1]; [4],280 ng/mL
same,"ct (total concentration, area under the curve over six hours)","[1]; free (+)-catechin, 1 g pure monomeric (+)-catechin, group B, listed as pure (+)-catechin",904 ± 163 ng·h/mL
same,T (max),[1]; [5],1.33 h
same,c (max) for 1 g of monomeric (+)-catechin ingested as it is,[1]; [5],280 ng
same,content of free monomeric (+)-catechin eliminated from the blood,[2],~90%
same,T (max),[3]; [6],0.5 h
same,Δct,[3]; [6],0%
same,"Δct (difference of ct to CP, related back to CP)","[3]; free (+)-catechin, rats, oral, dose equivalent to 100 mg/kg (+)-catechin",0%
same,T (max),"[3]; free (+)-catechin, rats, oral, dose equivalent to 100 mg/kg (+)-catechin, 5 Wistar rats",1 h
same,T (max),[3]; [7],1 h
same,c (max),[3]; [7],580 ng/mL
same,ct,[3]; [7],91 935 ng min/ml
same,Δct,"[3]; free (+)-catechin, rats, per os, dose equivalent to 25 mg/kg, 5 Wistar rats",0%
same,decrease of the peak content of free monomeric (+)-catechin in the blood,"[3]; oral absorption, after two hours",50%
same,T (max),[3]; [8],0.5 h
same,c (max),[3]; [8],2200 ng/mL
same,Δct,"[3]; total (+)-catechin, rats, oral, dose equivalent to 25 mg/kg, 3 Wistar rats",0%
same,increase in the level of incorporation,collagen of rat skin,+16%
same,solubility in water compared with the complexed form,Solubility in water,400 times lower

# — patent publication US9844595B2, “Composition comprising a complex of (+)-catechin and amino acid for the treatment and prevention of cancer” (VALORE, priority 2013, dated 2017)
